Experimental data published in PubChem BioAssay AID248 (DTP/NCI, 2004).
Several values for one entry are separate records, joined by “and”; a condition that tells them apart may be missing. Equal entries are not always repeated. Toxic doses and inconclusive results are not listed. No stated cut-off is given here; in the data, active means T/C of 150% or more; inactive means T/C below 125%.

Test system: L1210 leukemia ip in BDF1 mice, survival T/C
Test: NCI In Vivo Anticancer Drug Screen. Data for tumor model L1210 Leukemia (intraperitoneal) in B6D2F1 (BDF1) mice
Conditions: endpoint: mean survival time, higher = longer survival
In short: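 Ratio derived from survival: compound-dosed mice over vehicle-dosed mice, all bearing a transplantable tumor.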

[1] = dose: 100.0 mg/kg/injection, schedule: Q01DX009 (ip), vehicle: Klucel (hydroxypropylcellulose) (HPC)
[2] = dose: 100.0 mg/kg/injection, schedule: Q04DX003 (ip), vehicle: Klucel (hydroxypropylcellulose) (HPC)
[3] = dose: 200.0 mg/kg/injection, schedule: Q01DX009 (ip), vehicle: Klucel (hydroxypropylcellulose) (HPC)
[4] = dose: 200.0 mg/kg/injection, schedule: Q04DX003 (ip), vehicle: Klucel (hydroxypropylcellulose) (HPC)
[5] = dose: 400.0 mg/kg/injection, schedule: Q01DX009 (ip), vehicle: Klucel (hydroxypropylcellulose) (HPC)
[6] = dose: 400.0 mg/kg/injection, schedule: Q04DX003 (ip), vehicle: Klucel (hydroxypropylcellulose) (HPC)
[7] = dose: 50.0 mg/kg/injection, schedule: Q01DX009 (ip), vehicle: Klucel (hydroxypropylcellulose) (HPC)
[8] = dose: 100.0 mg/kg/injection, schedule: Q01DX001 (ip), vehicle: saline
[9] = dose: 100.0 mg/kg/injection, schedule: Q01DX001 (ip), vehicle: carboxymethylcellulose (CMC)
[10] = dose: 200.0 mg/kg/injection, schedule: Q01DX001 (ip), vehicle: carboxymethylcellulose (CMC)
[11] = dose: 100.0 mg/kg/injection, schedule: Q04DX003 (ip), vehicle: saline
[12] = dose: 200.0 mg/kg/injection, schedule: Q01DX001 (ip), vehicle: saline
[13] = dose: 200.0 mg/kg/injection, schedule: Q04DX003 (ip), vehicle: saline
[14] = dose: 400.0 mg/kg/injection, schedule: Q01DX001 (ip), vehicle: saline

Measured: T/C

CCCCCCC1N(Cc2ccccc2N(C)C)CCCN1Cc1ccccc1N(C)C
inactive: dose: 75.0 mg/kg/injection, schedule: Q01DX001 (ip), vehicle: saline 94 % of control | dose: 150.0 mg/kg/injection, schedule: Q01DX001 (ip), vehicle: saline 94 % of control | dose: 300.0 mg/kg/injection, schedule: Q01DX001 (ip), vehicle: saline 89 % of control

CC(=O)Nc1ccc(NC(=O)Nc2ccc(F)cc2)cc1
inactive: dose: 100.0 mg/kg/injection, schedule: Q04DX002 (ip), vehicle: Klucel (hydroxypropylcellulose) (HPC) 108 % of control | dose: 200.0 mg/kg/injection, schedule: Q04DX002 (ip), vehicle: Klucel (hydroxypropylcellulose) (HPC) 118 % of control | dose: 400.0 mg/kg/injection, schedule: Q04DX002 (ip), vehicle: Klucel (hydroxypropylcellulose) (HPC) 105 % of control

Cn1c(=O)cc(CC#N)c2ccccc21
inactive: dose: 100.0 mg/kg/injection, schedule: Q01DX001 (ip), vehicle: other 100 % of control

CCOC(=O)c1cc(C(=O)OC)[nH]c(=O)c1C#N
inactive: [1] 93 % of control | [2] 92 % of control | [3] 92 % of control | [4] 92 % of control | [5] 90 % of control | [6] 88 % of control

CC1CC(NC(=S)S)CC(C)(C)C1 (stereo unspecified)
inactive: dose: 25.0 mg/kg/injection, schedule: Q01DX009 (ip), vehicle: Klucel (hydroxypropylcellulose) (HPC) 93 % of control | [7] 95 % of control | [1] 97 % of control | [2] 93 % of control | [4] 96 % of control

FC(Cl)(Cl)c1nc2nc(Cl)c(Cl)nc2[nH]1
inactive: dose: 25.0 mg/kg/injection, schedule: Q01DX009 (ip), vehicle: water 95 % of control | dose: 50.0 mg/kg/injection, schedule: Q01DX009 (ip), vehicle: water 94 % of control | dose: 100.0 mg/kg/injection, schedule: Q01DX009 (ip), vehicle: water 97 % of control

O=C(O)C(Br)CBr (stereo unspecified)
inactive: [8] 90 % of control

N#Cc1c(O)c(Cl)c(Cl)c(O)c1C#N
inactive: [2] 109 % of control | [4] 96 % of control | [6] 96 % of control

Cc1ccc(N=C(N)N=C(N)N)cc1C
inactive: dose: 75.0 mg/kg/injection, schedule: Q01DX001 (ip), vehicle: carboxymethylcellulose (CMC) 97 % of control | dose: 150.0 mg/kg/injection, schedule: Q01DX001 (ip), vehicle: carboxymethylcellulose (CMC) 97 % of control | dose: 300.0 mg/kg/injection, schedule: Q01DX001 (ip), vehicle: carboxymethylcellulose (CMC) 91 % of control

O=Cc1cn(C2CC(O)C(CO)O2)c(=O)[nH]c1=O (stereo unspecified)
inactive: [7] 117 % of control | dose: 50.0 mg/kg/injection, schedule: Q04DX003 (ip), vehicle: saline with Tween-80 103 % of control | dose: 100.0 mg/kg/injection, schedule: Q01DX005 (ip), vehicle: saline 108 % of control | dose: 100.0 mg/kg/injection, schedule: Q04DX003 (ip), vehicle: saline with Tween-80 99 % of control | dose: 200.0 mg/kg/injection, schedule: Q01DX005 (ip), vehicle: saline 110 % of control | dose: 200.0 mg/kg/injection, schedule: Q04DX003 (ip), vehicle: saline with Tween-80 102 % of control | [5] 114 % of control | dose: 400.0 mg/kg/injection, schedule: Q04DX003 (ip), vehicle: saline with Tween-80 96 % of control

CC(CC(=O)O)C1Nc2ccccc2S(=O)(=O)C(c2ccccc2)C1=O (stereo unspecified)
inactive: [2] 95 % of control and 100 % of control | [4] 99 % of control

CCCCCCCCCC(=O)N/N=C/c1c[nH]c2ccccc12
inactive: [1] 95 % of control | [3] 114 % of control | [5] 100 % of control

CCNc1ccc([N+](=O)[O-])cn1
inactive: [1] 104 % of control | [3] 106 % of control

CN(C)C(=O)Nc1ccc(Cc2ccc(NC(=O)N(C)C)cc2)cc1
inactive: [1] 96 % of control | [3] 92 % of control | [5] 96 % of control

C=C(C)C(=O)OCC1CO1 (stereo unspecified)
inactive: dose: 50.0 mg/kg/injection, schedule: Q01DX Z (ip), vehicle: other 90 % of control | dose: 100.0 mg/kg/injection, schedule: Q01DX Z (ip), vehicle: other 95 % of control | dose: 200.0 mg/kg/injection, schedule: Q01DX Z (ip), vehicle: other 107 % of control

COC1OCC(COC(=O)c2ccc([N+](=O)[O-])cc2)C1OC(=O)c1ccc([N+](=O)[O-])cc1 (stereo unspecified)
inactive: [9] 88 % of control | [10] 88 % of control

CCC1CN1P1(=O)OCC(CC)([N+](=O)[O-])CO1 (stereo unspecified)
inactive: [9] 90 % of control | [10] 101 % of control | dose: 400.0 mg/kg/injection, schedule: Q01DX001 (ip), vehicle: carboxymethylcellulose (CMC) 97 % of control

Cc1ccc([N+](=O)[O-])cc1NC(=O)OCc1ccco1
inactive: [1] 103 % of control | [3] 97 % of control | [5] 94 % of control

COc1ccc2c(c1)C13CCN(C)C(C2)C1CCC1(C3)OCCO1 (stereo unspecified)
inactive: dose: 12.5 mg/kg/injection, schedule: Q01DX009 (ip), vehicle: saline 103 % of control | dose: 25.0 mg/kg/injection, schedule: Q01DX009 (ip), vehicle: saline 94 % of control | dose: 50.0 mg/kg/injection, schedule: Q01DX009 (ip), vehicle: saline 97 % of control | [8] 109 % of control | [1] 106 % of control | [11] 105 % of control | [12] 101 % of control | [13] 86 % of control | [14] 95 % of control

N#C/C(=C/C=C/c1ccccc1)c1cccc([N+](=O)[O-])c1
inactive: dose: 100.0 mg/kg/injection, schedule: Q01DX009 (ip), vehicle: saline with Tween-80 108 % of control | dose: 200.0 mg/kg/injection, schedule: Q01DX009 (ip), vehicle: saline with Tween-80 91 % of control | dose: 400.0 mg/kg/injection, schedule: Q01DX009 (ip), vehicle: saline with Tween-80 100 % of control

CCc1ccc(/C(C#N)=C/c2ccc(OC)cc2)cc1
inactive: [1] 92 % of control | [3] 94 % of control | [5] 92 % of control

O=C(Nc1ccc(CCC2=NCCCN2)cc1)c1ccc(C(=O)Nc2ccc(CCC3=NCCCN3)cc2)cc1
inactive: dose: 60.0 mg/kg/injection, schedule: Q01DX Z (ip), vehicle: saline 118 % of control | dose: 120.0 mg/kg/injection, schedule: Q01DX Z (ip), vehicle: saline 110 % of control | dose: 240.0 mg/kg/injection, schedule: Q01DX Z (ip), vehicle: saline 112 % of control

CCCCNC=O
inactive: dose: 100.0 mg/kg/injection, schedule: Q01DX009 (ip), vehicle: saline 101 % of control | [11] 102 % of control | dose: 200.0 mg/kg/injection, schedule: Q01DX009 (ip), vehicle: saline 106 % of control | [13] 93 % of control | dose: 400.0 mg/kg/injection, schedule: Q01DX009 (ip), vehicle: saline 108 % of control | dose: 400.0 mg/kg/injection, schedule: Q04DX003 (ip), vehicle: saline 111 % of control

CC1OC(OC2CCC3(C)C(CCC4C3CC(O)C3(C)C(C5=CC(=O)OC5)CCC43O)C2)CC(O)C1OC1CC(O)C(OC2CC(O)C(OC3OC(CO)C(O)C(O)C3O)C(C)O2)C(C)O1 (stereo unspecified)
inactive: dose: 4.0 mg/kg/injection, schedule: Q01DX015 (sc), vehicle: steriod suspending solution 96 % of control | dose: 8.0 mg/kg/injection, schedule: Q01DX015 (sc), vehicle: steriod suspending solution 104 % of control | dose: 16.0 mg/kg/injection, schedule: Q01DX015 (sc), vehicle: steriod suspending solution 102 % of control | dose: 32.0 mg/kg/injection, schedule: Q01DX015 (sc), vehicle: steriod suspending solution 98 % of control | [8] 100 % of control | [12] 101 % of control | [14] 100 % of control
